Experimental data published in patent US4154932A (priority 1977, dated 1979).
Where two headings read alike, the source gives them in different places.

Columns and labels:
[1] = Physical dependence liability in man (predicted from mouse models); details: prediction from the mouse test model
Protocol: (§1) Buprenorphine and (-)XI were tested for physical dependence liability in mice. […] The compounds were then tested as substitutes for morphine in withdrawn morphine-dependent mice.

[2] = Analgetic activity, overall comparison of Table 2; assay type: in vivo
[3] = system: Rat Writhing; test: Rat Writhing (analgetic activity); assay type: in vivo; details: Table 2; for ED50: Rattus norvegicus
[4] = system: phenylquinone induced writhings; test: animal or person; details: for ED50: Mus musculus
Protocol: In vivo testing was conducted on many of the compounds of the present invention.

[5] = system: withdrawn morphine-dependent mice; test: Substitution for morphine in withdrawn morphine-dependent mice; details: 3 to 54 mg/kg sc
Protocol: as §1

[6] = system: Cough Response; test: animal or person; assay type: in vivo, dog; details: for ED50: Canis lupus familiaris
Text: Comparative Antitussive Effects of (-)-XI, Butorphanol and
Morphine Sulfate in the Unanesthetized Dog

[7] = system: Rat Vocalization; test: Rat Vocalization (analgetic activity); assay type: in vivo; details: Table 2; for ED50: Rattus norvegicus
[8] = system: opioids, oxymorphone and morphine; test: Antagonist activity, overall comparison of Table 3; assay type: in vivo
[9] = system: Straub Tail induced by oxymorphone; test: Antagonism of oxymorphone-induced Straub Tail (antagonist activity); assay type: in vivo, mouse; details: for ED50: Mus musculus
Protocol: ^2 Antagonism of Straub Tail induced by oxymorphone (2 mg/kg, s.c.) i

[10] = system: Morphine Antagonism Rat Tail Flick; test: Morphine antagonism, Rat Tail Flick (antagonist activity); assay type: in vivo; details: Table 3; for ED50: Rattus norvegicus
[11] = system: withdrawal jumping (abstinence); test: Primary physical dependence test in mice (withdrawal jumping on naloxone challenge); details: repeated sc injections for two days
Protocol: as §1

SMILES: Oc1ccc2c(c1)[C@]13CCN(CC4CC4)[C@H](C2)[C@@H]1CCOC3 [(-)-XI, (-)-17-Cyclopropylmethyl-3-hydroxy-6-oxamorphinan]
- Predicted physical dependence liability in man [1]: nil or of a low order
- Oral/parenteral analgetic potency ratio, comparison [2]: comparable to buprenorphine and approximately ten times better than butorphanol
- Oral analgetic potency, comparison ([2]; oral): markedly better than butorphanol and equivalent to buprenorphine
- ED50 ([3]; po, read-out: Analgetic activity ED50, Rat Writhing po): 0.22 mg/kg
- ED50 ([3]; sc, read-out: Analgetic activity ED50, Rat Writhing sc): 0.021 mg/kg
- Rat Writhing po/sc ([3]; ratio of ED50 po/sc): 11
- ED50 ([4]; central, read-out: Analgetic activity ED50, Intraventricular): 0.0012 mg/kg
- ED50 ([4]; po, read-out: Analgetic activity ED50, Mouse Writhing po): 0.3 mg/kg
- ED50 ([4]; sc, read-out: Agonist Activity, Phenylquinone Writhing ED50): 0.028 mg/kg
- ED50 ([4]; sc, read-out: Analgetic activity ED50, Mouse Writhing sc): 0.028 mg/kg
- Mouse Writhing po/sc ([4]; mouse, in vivo): 11
- sc/I. Vent. ([4]; mouse, in vivo, sc): 23
- Substitution for morphine [5]: no evidence of substitution for morphine
- Percent Inhibition of Cough Response ([6]; 0.005 mg/kg sc, 15 min): 7%
- Percent Inhibition of Cough Response ([6]; 0.005 mg/kg sc, 30 min): 52%
- Percent Inhibition of Cough Response ([6]; 0.005 mg/kg sc, 60 min): 15%
- Percent Inhibition of Cough Response ([6]; 0.005 mg/kg sc, 120 min): 41%
- Percent Inhibition of Cough Response ([6]; 0.005 mg/kg sc, 180 min): 41%
- Percent Inhibition of Cough Response ([6]; 0.005 mg/kg sc, 240 min): 37%
- Percent Inhibition of Cough Response ([6]; 0.005 mg/kg sc, 300 min): 33%
- Percent Inhibition of Cough Response ([6]; 0.01 mg/kg sc, 15 min): 38%
- Percent Inhibition of Cough Response ([6]; 0.01 mg/kg sc, 30 min): 68%
- Percent Inhibition of Cough Response ([6]; 0.01 mg/kg sc, 60 min): 86%
- Percent Inhibition of Cough Response ([6]; 0.01 mg/kg sc, 120 min): 98%
- Percent Inhibition of Cough Response ([6]; 0.01 mg/kg sc, 180 min): 62%
- Percent Inhibition of Cough Response ([6]; 0.01 mg/kg sc, 240 min): 50%
- Percent Inhibition of Cough Response ([6]; 0.01 mg/kg sc, 300 min): 24%
- Percent Inhibition of Cough Response ([6]; 0.02 mg/kg sc, 15 min): 90%
- Percent Inhibition of Cough Response ([6]; 0.02 mg/kg sc, 30 min): 99%
- Percent Inhibition of Cough Response ([6]; 0.02 mg/kg sc, 60 min): 88%
- Percent Inhibition of Cough Response ([6]; 0.02 mg/kg sc, 120 min): 70%
- Percent Inhibition of Cough Response ([6]; 0.02 mg/kg sc, 180 min): 67%
- Percent Inhibition of Cough Response ([6]; 0.02 mg/kg sc, 240 min): 67%
- Percent Inhibition of Cough Response ([6]; 0.02 mg/kg sc, 300 min): 64%
- Percent Inhibition of Cough Response ([6]; 0.05 mg/kg sc, 15 min): 100%
- Percent Inhibition of Cough Response ([6]; 0.05 mg/kg sc, 30 min): 100%
- Percent Inhibition of Cough Response ([6]; 0.05 mg/kg sc, 60 min): 100%
- Percent Inhibition of Cough Response ([6]; 0.05 mg/kg sc, 120 min): 100%
- Percent Inhibition of Cough Response ([6]; 0.05 mg/kg sc, 180 min): 100%
- Percent Inhibition of Cough Response ([6]; 0.05 mg/kg sc, 240 min): 100%
- Percent Inhibition of Cough Response ([6]; 0.05 mg/kg sc, 300 min): 100%
- ED50 ([6]; po, unanesthetized dog, read-out: Oral antitussive ED50): 0.04 mg/kg
- ED50 ([6]; sc, unanesthetized dog, read-out: Antitussive ED50): 0.006 mg/kg
- Antitussive potency relative to butorphanol ([6]; dog, in vivo, po): 8 times
- Antitussive potency relative to morphine sulfate ([6]; dog, in vivo, po): 16 times
- Antitussive potency relative to butorphanol ([6]; dog, in vivo, sc): 1.7 times
- Antitussive potency relative to morphine sulfate ([6]; dog, in vivo, sc): approximately 7 times
- Duration of antitussive activity ([6]; dog, in vivo, sc): significantly longer duration of activity than either butorphanol or morphine sulfate
- Antitussive activity ([6]; subcutaneous, unanesthetized dog): potent antitussive agent
- ED50 ([7]; po, read-out: Analgetic activity ED50, Rat Vocalization po): 0.11 mg/kg
- ED50 ([7]; sc, read-out: Analgetic activity ED50, Rat Vocalization sc): 0.006 mg/kg
- Rat Vocalization po/sc ([7]; ratio of ED50 po/sc): 18
- Oral/parenteral potency ratio relative to antagonist activity, comparison [8]: superior to butorphanol and about equal to that of buprenorphine
- Antagonist potency relative to butorphanol ([8]; blocking the effects of oxymorphone and morphine): about twice as potent as butorphanol
- ED50 ([9]; sc, mice, Table 1, oxymorphone 2 mg/kg, s.c., read-out: Antagonist Activity, Oxymorphone Straub Tail ED50): 0.44 mg/kg
- ED50 ([9]; po, Table 3, read-out: Antagonist activity ED50, Oxymorphone-Induced Straub Tail po): 14 mg/kg
- ED50 ([9]; sc, Table 3, read-out: Antagonist activity ED50, Oxymorphone-Induced Straub Tail sc): 0.44 mg/kg
- Oxymorphone-Induced Straub Tail po/sc ([9]; ratio of ED50 po/sc, Table 3): 32
- ED50 ([10]; po, read-out: Antagonist activity ED50, Morphine Antagonism Rat Tail Flick po): ~3 mg/kg
- ED50 ([10]; sc, read-out: Antagonist activity ED50, Morphine Antagonism Rat Tail Flick sc): 0.26 mg/kg
- Morphine Antagonism Rat Tail Flick po/sc ([10]; ratio of ED50 po/sc): 12
- Withdrawal jumping (primary physical dependence) [11]: did not exhibit withdrawal jumping (abstinence)
